From the supplement of paper PMC13380429

Experiments:
Details in all cases: 72 h
HepG2 [1] = experiment: drug sensitivity score (DSS) for viability; higher = more toxic; extreme values may be limits of the assay
Caco-2 [2] = experiment: as above
Calu-3 [3] = experiment: as above
U2OS [4] = experiment: as above
Vero E6 [5] = experiment: as above
HepG2 [6] = experiment: cell viability relative to DMSO; higher = less toxic
Caco-2 [7] = experiment: as above
Calu-3 [8] = experiment: as above
U2OS [9] = experiment: as above
Vero E6 [10] = experiment: as above
HepG2 [11] = experiment: relative viability EC50 (midpoint between 100% and the lowest measured viability); higher = less toxic
Caco-2 [12] = experiment: as above
Calu-3 [13] = experiment: as above
U2OS [14] = experiment: as above
Vero E6 [15] = experiment: as above

SMILES | drug sensitivity score (HepG2 [1]) | drug sensitivity score (Caco-2 [2]) | drug sensitivity score (Calu-3 [3]) | drug sensitivity score (U2OS [4]) | drug sensitivity score (Vero E6 [5]) | cell viability (HepG2 [6]; 1 nM) [%] | cell viability (HepG2 [6]; 10 nM) [%] | cell viability (HepG2 [6]; 100 nM) [%] | cell viability (HepG2 [6]; 1000 nM) [%] | cell viability (HepG2 [6]; 10000 nM) [%] | cell viability (Caco-2 [7]; 1 nM) [%] | cell viability (Caco-2 [7]; 10 nM) [%] | cell viability (Caco-2 [7]; 100 nM) [%] | cell viability (Caco-2 [7]; 1000 nM) [%] | cell viability (Caco-2 [7]; 10000 nM) [%] | cell viability (Calu-3 [8]; 1 nM) [%] | cell viability (Calu-3 [8]; 10 nM) [%] | cell viability (Calu-3 [8]; 100 nM) [%] | cell viability (Calu-3 [8]; 1000 nM) [%] | cell viability (Calu-3 [8]; 10000 nM) [%] | cell viability (U2OS [9]; 1 nM) [%] | cell viability (U2OS [9]; 10 nM) [%] | cell viability (U2OS [9]; 100 nM) [%] | cell viability (U2OS [9]; 1000 nM) [%] | cell viability (U2OS [9]; 10000 nM) [%] | cell viability (Vero E6 [10]; 1 nM) [%] | cell viability (Vero E6 [10]; 10 nM) [%] | cell viability (Vero E6 [10]; 100 nM) [%] | cell viability (Vero E6 [10]; 1000 nM) [%] | cell viability (Vero E6 [10]; 10000 nM) [%] | relative viability EC50 (HepG2 [11]) [µM] | relative viability EC50 (Caco-2 [12]) [µM] | relative viability EC50 (Calu-3 [13]) [µM] | relative viability EC50 (U2OS [14]) [µM] | relative viability EC50 (Vero E6 [15]) [µM]
COc1cc(C)nc(-n2nc(C)cc2OC)n1 [epirizole] | 0 | 0 | 0 | 0 | 0 | 103 | 96.7 | 105 | 94 | 97.8 | 83.5 | 92.7 | 82.3 | 97.4 | 89 | 91.9 | 92.2 | 88.3 | 97.3 | 86 | 95.1 | 101 | 94.8 | 99.8 | 97 | 112 | 99.3 | 110 | 105 | 94.9 | > 10 | > 10 | > 10 | > 10 | > 10
C[C@@H](O)[C@H]1C(=O)N2C(C(=O)O)=C(S[C@@H]3CN[C@H](C(=O)Nc4cccc(C(=O)O)c4)C3)[C@H](C)[C@H]12 [ertapenem] | 0 | 2.7 | 0 | 0 | 0 | 90.9 | 97.4 | 93.2 | 103 | 91.9 | 101 | 114 | 84.3 | 96.3 | 85.9 | 98.2 | 99.7 | 94.4 | 89.7 | 97.8 | 94.7 | 98.9 | 96.8 | 101 | 99.5 | 106 | 98.3 | 106 | 100 | 103 | > 10 | > 10 | > 10 | > 10 | > 10
CN1CC[C@@]2(C)c3cc(O)ccc3N(C)[C@@H]12 [eseroline-(-)] | 0.2 | 1.9 | 0.1 | 0 | 0 | 98.2 | 103 | 110 | 109 | 83.7 | 103 | 97.9 | 105 | 89.6 | 77.5 | 101 | 101 | 99.1 | 112 | 84.6 | 106 | 105 | 99.1 | 101 | 96.4 | 96.3 | 97.9 | 96.1 | 94.2 | 96 | > 10 | > 10 | > 10 | > 10 | > 10
CCc1cc(C(N)=S)ccn1 [ethionamide] | 0 | 0 | 0 | 0 | 0 | 100 | 90.6 | 97.9 | 102 | 102 | 95.7 | 92.7 | 96.5 | 92.6 | 102 | 90.8 | 92.2 | 98.7 | 93 | 95.7 | 97.8 | 94 | 97.1 | 94.7 | 96.3 | 96.7 | 101 | 101 | 91.5 | 99.7 | > 10 | > 10 | > 10 | > 10 | > 10
CCOC(=O)c1ccc(O)cc1 [ethyl-paraben] | 0 | 0 | 0 | 0 | 0 | 108 | 102 | 101 | 94.7 | 97.8 | 101 | 94.3 | 101 | 99.2 | 100 | 96.6 | 93 | 106 | 97.3 | 92 | 96.3 | 97 | 107 | 98.3 | 106 | 102 | 99.7 | 98.9 | 104 | 99.8 | > 10 | > 10 | > 10 | > 10 | > 10
COc1cc([C@@H]2c3cc4c(cc3[C@@H](O[C@@H]3O[C@@H]5CO[C@@H](C)O[C@H]5[C@H](O)[C@H]3O)[C@H]3COC(=O)[C@H]23)OCO4)cc(OC)c1OP(=O)(O)O [etoposide-phosphate] | 10 | 0 | 5 | 0 | 0.3 | 88.6 | 86.8 | 85.4 | 59.7 | 29.5 | 81.7 | 92.6 | 91.9 | 102 | 107 | 107 | 106 | 98.3 | 85.7 | 47.1 | 95.1 | 104 | 94.9 | 99.7 | 108 | 93.3 | 97.6 | 92.7 | 86.7 | 88.3 | 0.478 | > 10 | 1.49 | > 10 | > 10
C[C@@H](O)[C@H]1C(=O)N2C(C(=O)O)=C([C@H]3CCCO3)S[C@H]12 [faropenem] | 0 | 0 | 0 | 0 | 0 | 103 | 99.4 | 104 | 103 | 98.7 | 95 | 91 | 101 | 100 | 95 | 106 | 96.5 | 99.6 | 98 | 105 | 101 | 101 | 94.6 | 96.6 | 98.8 | 97.2 | 99.5 | 102 | 96.8 | 97.1 | > 10 | > 10 | > 10 | > 10 | > 10
CN1CC(=O)N=C1NC(=O)Nc1cccc(Cl)c1 [fenobam] | 0 | 0 | 0 | 0 | 0 | 110 | 99.4 | 112 | 97 | 103 | 93.1 | 94.4 | 90.1 | 103 | 97.7 | 102 | 101 | 100 | 105 | 97.1 | 96.6 | 106 | 98.2 | 102 | 98.3 | 100 | 97 | 99.5 | 100 | 101 | > 10 | > 10 | > 10 | > 10 | > 10
CC(=O)O[C@]1(C(C)=O)CC[C@H]2[C@@H]3C[C@H](C)C4=CC(=O)C=C[C@]4(C)[C@@]3(F)[C@@H](O)C[C@@]21C [fluorometholone-acetate] | 0 | 0.1 | 0 | 0 | 0 | 102 | 95.6 | 101 | 92.7 | 89.7 | 99.9 | 109 | 99.1 | 104 | 86.6 | 103 | 100 | 97.8 | 106 | 98.9 | 105 | 103 | 99.3 | 98.5 | 96.2 | 93.5 | 98.3 | 93.9 | 95.7 | 90.4 | > 10 | > 10 | > 10 | > 10 | > 10
Oc1cc2c(cc1O)[C@@H]1c3ccc(O)c(O)c3OC[C@]1(O)C2 [hematoxylin] | 0 | 0 | 0 | 0 | 0 | 104 | 100 | 96.4 | 104 | 105 | 98.4 | 89.9 | 93 | 108 | 90 | 97.1 | 103 | 92.4 | 110 | 96.1 | 98.5 | 93.5 | 99.2 | 103 | 91.1 | 95.2 | 99.3 | 92.7 | 95.5 | 102 | > 10 | > 10 | > 10 | > 10 | > 10
